Tests used:
[1] = system: Endothelin-converting enzyme 1 (Sus scrofa); assay: Inhibition of endothelin-converting enzyme 1 partially purified from porcine primary aortic endothelial cells at 20 uM; conditions: Endothelial cell
[2] = system: Endothelin-converting enzyme 1 (Sus scrofa); assay: Compound was evaluated for inhibition of Endothelin converting enzyme-1 partially purified from porcine primary aortic endothelial cells at 20 uM; conditions: Endothelial cell

| inhibition [1] | inhibition [2] | SMILES |
| --- | --- | --- |
| 24% | – | CN(C(=O)Cc1ccccc1)[C@@H](CS)Cc1ccccc1 |
| 66% | – | O=C(CCc1cccnc1)N[C@@H](CS)Cc1ccccc1 |
| 48% | – | O=C(CCC(C(=O)O)c1ccccc1)N[C@@H](CS)Cc1ccccc1 (some centres undefined) |
| 0% | – | O=C(N[C@@H](CS)Cc1ccccc1)[C@@H]1CCCN1 |
| 39% | – | O=C(N[C@@H](CS)Cc1ccc(-c2ccccc2)cc1)c1cccnc1 |
| 76% | – | O=C(N[C@@H](CS)Cc1ccccc1)c1cc2ccccc2cn1 |
| 67% | – | O=C(N[C@@H](CS)Cc1ccccc1)c1c[nH]c2ccccc12 |
| 33% | – | O=C(N[C@@H](CS)Cc1ccccc1)C1Cc2ccccc2CN1 (some centres undefined) |
| 74% | – | O=C(Cc1ccc(-c2ccccc2)cc1)N[C@@H](CS)Cc1ccccc1 |
| 67% | – | O=C(N[C@@H](CS)Cc1ccccc1)c1cccs1 |
| 49% | – | O=C(CCc1ccccc1)N[C@@H](CS)Cc1ccccc1 |
| 52% | – | O=C(N[C@@H](CS)Cc1ccccc1)c1ccccn1 |
| 58% | – | O=C(Cc1cccnc1)N[C@@H](CS)Cc1ccccc1 |
| 58% | – | O=C(CCc1ccccc1O)N[C@@H](CS)Cc1ccccc1 |
| 54% | – | O=C(N[C@@H](CS)Cc1ccccc1)c1ccco1 |
| 56% | – | O=C(Cc1ccccc1)N[C@@H](CS)Cc1ccc(O)cc1 |
| 57% | – | O=C(CCc1ccccc1Cl)N[C@@H](CS)Cc1ccccc1 |
| 36% | – | O=C(N[C@@H](CS)Cc1ccccc1)c1nccc2ccccc12 |
| 48% | – | O=C(N[C@@H](CS)Cc1ccccc1)c1ccncc1 |
| 58% | – | O=C(Cc1ccccc1)N[C@@H](CS)Cc1ccccc1 |

The remaining lines, values behind:

| SMILES | inhibition [1] | inhibition [2] |
| --- | --- | --- |
| O=C(Cc1ccc(OCc2ccccc2)cc1)N[C@H](Cc1c[nH]c2ccccc12)C(=O)N1CCC[C@@H]1CS | > 20% | – |
| CC(C)C[C@H](CS)NC(=O)c1cccnc1 | 21% | – |
| O=C(Cc1ccc(-c2ccccc2)cc1)N[C@@H](CS)CCc1ccccc1 | 16% | – |
| O=C(Cc1ccccc1OCc1ccccc1)N[C@@H](CS)Cc1ccccc1 | – | 63% |
| Cn1cc(C[C@H](CS)NC(=O)Cc2ccc(-c3ccccc3)cc2)c2ccccc21 | 68% | – |
| O=C(Cc1ccc(OCc2ccccc2)cc1)N[C@@H](CS)Cc1ccc2ccccc2c1 | 10% | – |
| O=C(Cc1ccc(-c2ccccc2)cc1)N[C@@H](CS)Cc1cccnc1 | 91% | – |
| CC(C)[C@H](CS)NC(=O)c1cccnc1 | 30% | – |
| O=C(N[C@H](Cc1c[nH]c2ccccc12)C(=O)NCCS)c1cccnc1 | > 20% | – |
| O=C(Cc1ccc(OCc2ccccc2)cc1)N[C@@H](CS)Cc1ccc(-c2cccc3ccccc23)cc1 | 0% | – |
| O=C(Cc1ccc(OCc2ccccc2)cc1)N[C@@H](CCS)Cc1c[nH]c2ccccc12 | > 20% | – |
| O=C(Cc1ccccc1)N[C@@H](CS)Cc1ccc(OCc2ccccc2)cc1 | 15% | – |
| O=C(N[C@@H](CS)Cc1ccccc1)/C(=C/c1ccccc1)c1ccccc1 | 23% | – |
| O=C(Cc1ccc(OCc2ccccc2)cc1)N[C@@H](CS)Cc1cccc2ccccc12 | 51% | – |
